Laboratory results published in the supplement of paper PMC10307832.

Assays:
Assay in all cases: relative viability (nuclei count vs DMSO), 5 days (fraction); higher = more cells survive
RU-SKI 43 + Vorinostat = compound: CC[C@@H](C)CNCC(=O)N1CCC2=C([C@@H]1COC3=CC=CC(=C3)C)C=CS2 [RU-SKI 43] + O=C(CCCCCCC(=O)Nc1ccccc1)NO [Vorinostat] (partner 1 µM)
In short: (§1)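 Relative viability equals treated-well nuclei counts divided by vehicle-well nuclei counts. Counts came from 4× images of lung cancer cell lines grown in 1536-well plates for 5 days after pin-tool dosing on the day after seeding. Dosing used one drug alone or a fixed anchor-drug dose plus five library-drug doses (not always all listed) in √10 steps, and values are medians of duplicate plates.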

MK-8033 + Olaparib = compound: Cn1cc(-c2cnc3ccc4ccc(CS(=O)(=O)NCc5ccccn5)cc4c(=O)c3c2)cn1 [MK-8033] + O=C(c1cc(Cc2n[nH]c(=O)c3ccccc23)ccc1F)N1CCN(C(=O)C2CC2)CC1 [Olaparib] (partner 8 µM)
In short: as §1

RU-SKI 43 + Crizotinib = compound: CC[C@@H](C)CNCC(=O)N1CCC2=C([C@@H]1COC3=CC=CC(=C3)C)C=CS2 [RU-SKI 43] + C[C@@H](Oc1cc(-c2cnn(C3CCNCC3)c2)cnc1N)c1c(Cl)ccc(F)c1Cl [Crizotinib] (partner 1 µM)
In short: as §1

MK-8033 + Navitoclax = compound: Cn1cc(-c2cnc3ccc4ccc(CS(=O)(=O)NCc5ccccn5)cc4c(=O)c3c2)cn1 [MK-8033] + CC1(C)CCC(c2ccc(Cl)cc2)=C(CN2CCN(c3ccc(C(=O)NS(=O)(=O)c4ccc(N[C@H](CCN5CCOCC5)CSc5ccccc5)c(S(=O)(=O)C(F)(F)F)c4)cc3)CC2)C1 [Navitoclax] (partner 0.5 µM)
In short: as §1

Cell Line	relative viability (RU-SKI 43 + Vorinostat; first compound 0.1 µM)	relative viability (RU-SKI 43 + Vorinostat; first compound 0.3162 µM)	relative viability (RU-SKI 43 + Vorinostat; first compound 1 µM)	relative viability (RU-SKI 43 + Vorinostat; first compound 3.162 µM)	relative viability (RU-SKI 43 + Vorinostat; first compound 10 µM)	relative viability (MK-8033 + Olaparib; first compound 0.02 µM)	relative viability (MK-8033 + Olaparib; first compound 0.06325 µM)	relative viability (MK-8033 + Olaparib; first compound 0.2 µM)	relative viability (MK-8033 + Olaparib; first compound 0.6325 µM)	relative viability (MK-8033 + Olaparib; first compound 2 µM)	relative viability (RU-SKI 43 + Crizotinib; first compound 0.1 µM)	relative viability (RU-SKI 43 + Crizotinib; first compound 0.3162 µM)	relative viability (RU-SKI 43 + Crizotinib; first compound 1 µM)	relative viability (RU-SKI 43 + Crizotinib; first compound 3.162 µM)	relative viability (RU-SKI 43 + Crizotinib; first compound 10 µM)	relative viability (MK-8033 + Navitoclax; first compound 0.02 µM)	relative viability (MK-8033 + Navitoclax; first compound 0.06325 µM)	relative viability (MK-8033 + Navitoclax; first compound 0.2 µM)	relative viability (MK-8033 + Navitoclax; first compound 0.6325 µM)	relative viability (MK-8033 + Navitoclax; first compound 2 µM)
NCI-H522	0.88	0.803	1.01	0.941	0.932	0.544	0.491	0.607	0.685	0.632	–	–	–	–	–	–	–	–	–	–
NCI-H358	0.642	0.929	0.708	0.793	0.614	0.561	0.553	0.577	0.715	0.57	0.604	0.484	0.512	0.578	0.35	–	–	–	–	–
NCI-H1755	0.746	0.862	0.848	0.809	0.859	0.899	0.916	0.863	0.846	0.735	0.809	1.15	0.953	0.889	0.74	0.829	0.988	0.983	1.01	0.966
LCLC-103H	0.804	0.821	0.855	0.781	0.729	0.731	0.778	0.737	0.729	0.815	1.08	1.12	1.08	1.09	0.926	–	–	–	–	–
HOP-62	0.563	0.693	0.632	0.724	0.639	0.407	0.51	0.417	0.399	0.471	0.7	1.01	1.09	0.829	0.977	1.03	0.89	1.03	1.12	0.955
HCC-78	0.531	0.378	0.469	0.475	0.439	0.717	0.82	0.739	0.505	0.775	0.334	0.305	0.35	0.353	0.302	0.596	0.665	0.767	–	0.774
NCI-H650	0.497	0.369	–	0.455	0.459	0.412	0.364	0.403	0.399	0.335	0.76	0.622	0.694	–	0.619	–	–	–	–	–
NCI-H1563	–	–	–	–	–	–	–	–	–	–	0.789	0.773	0.825	0.836	0.734	–	–	–	–	–
ABC-1	0.964	1.08	1.27	1.01	1.16	1.07	0.746	0.838	0.939	0.898	0.993	1.21	1.26	0.939	0.563	–	–	–	–	–
Calu-6	–	–	–	–	–	0.601	0.559	0.553	0.582	0.548	0.781	0.871	0.936	0.726	0.594	0.784	0.799	0.691	0.869	0.905
EBC-1	–	–	–	–	–	0.659	0.565	0.792	0.648	0.568	0.19	0.183	0.202	0.176	0.155	0.428	0.383	0.474	0.404	0.13
NCI-H520	0.77	0.745	0.788	0.704	0.646	0.306	0.326	0.357	0.307	0.315	0.858	0.874	1.09	0.706	0.616	1.14	1.03	1.02	1.06	0.975
NCI-H322M	0.83	0.925	0.911	0.998	0.782	0.725	0.762	0.733	0.782	0.739	1.19	1.04	0.941	0.979	0.733	1.24	1.08	1.18	1.2	1.17
201T	0.968	1.17	1.09	1.06	0.957	0.873	0.824	0.832	0.82	0.822	1.02	0.991	1.06	1.06	0.992	1.26	1.19	1.21	1.16	1.2
RERF-LC-KJ	0.695	0.699	0.654	0.702	0.546	1.03	0.973	0.884	0.899	0.882	0.904	0.86	0.772	0.862	0.77	0.972	0.867	0.756	0.844	0.882
A549	–	–	–	–	–	0.34	0.275	0.267	0.305	0.336	0.775	1.12	0.847	0.71	0.52	1.22	1.13	1.16	1.19	1.14
NCI-H1648	0.416	0.572	0.563	0.51	0.754	0.841	–	0.748	0.765	0.574	–	–	–	–	–	–	–	–	–	–
